Measurements reported in ChEMBL document CHEMBL2150958, “Tuned-Affinity Bivalent Ligands for the Characterization of Opioid Receptor Heteromers” (ACS Med Chem Lett, 2012).

How the values were obtained:
[1] = biological target: T1, Opioid receptors; mu and delta (Mus musculus, UniProt P42866+P32300); experiment: Displacement of [3H]-DPDPE from mouse MOR/DOR expressed in HEK293 cells; format: cell-based
[2] = biological target: Delta-type opioid receptor (Mus musculus, UniProt P32300); experiment: Displacement of [3H]-DPDPE from mouse DOR expressed in HEK293 cells; format: cell-based
[3] = biological target: T1, Opioid receptors; mu and delta; experiment: Displacement of [3H]-DAMGO from mouse MOR/DOR expressed in HEK293 cells; format: cell-based
[4] = biological target: Mu-type opioid receptor (Mus musculus, UniProt P42866); experiment: Displacement of [3H]-DAMGO from mouse MOR expressed in HEK293 cells; format: cell-based
[5] = species on record: Mus musculus; experiment: Selectivity ratio of Ki for mouse DOR to Ki for mouse MOR/DOR

Delta-type opioid receptor, sequence (P32300 whole entry): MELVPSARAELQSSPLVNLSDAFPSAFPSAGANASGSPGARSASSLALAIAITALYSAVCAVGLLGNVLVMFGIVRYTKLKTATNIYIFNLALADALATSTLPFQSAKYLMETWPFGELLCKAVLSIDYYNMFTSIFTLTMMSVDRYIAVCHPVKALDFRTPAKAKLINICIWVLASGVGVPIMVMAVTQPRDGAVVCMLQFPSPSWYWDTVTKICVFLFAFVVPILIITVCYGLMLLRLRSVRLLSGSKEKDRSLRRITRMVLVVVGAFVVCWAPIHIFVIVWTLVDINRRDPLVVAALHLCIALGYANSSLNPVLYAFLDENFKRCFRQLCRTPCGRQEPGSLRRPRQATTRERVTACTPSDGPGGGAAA
Mu-type opioid receptor, sequence (P42866 whole entry): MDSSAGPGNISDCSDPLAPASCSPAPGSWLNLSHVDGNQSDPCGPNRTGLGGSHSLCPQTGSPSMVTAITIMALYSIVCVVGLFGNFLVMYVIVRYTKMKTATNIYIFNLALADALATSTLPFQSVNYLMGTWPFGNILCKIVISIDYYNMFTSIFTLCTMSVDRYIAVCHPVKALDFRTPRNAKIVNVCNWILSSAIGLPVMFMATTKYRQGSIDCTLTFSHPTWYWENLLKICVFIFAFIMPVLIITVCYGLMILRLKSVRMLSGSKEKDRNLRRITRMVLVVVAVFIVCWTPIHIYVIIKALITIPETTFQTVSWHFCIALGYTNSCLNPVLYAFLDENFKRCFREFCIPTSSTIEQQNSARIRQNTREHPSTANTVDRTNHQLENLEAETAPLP

| SMILES | pKi [1] | Ki [2] [nM] | pKi [3] | Ki [4] [nM] | Ratio Ki [5] |
| --- | --- | --- | --- | --- | --- |
| CNC(=O)COCC(=O)NCCCCCNC(=O)COCC(=O)N[C@@H]1CC[C@@]2(O)[C@H]3Cc4ccc(O)c5c4[C@@]2(CCN3CC2CC2)[C@H]1O5 | 7.79 | 30.9 | 8.38 | 0.324 |  |
| CN1CC[C@]23c4c5ccc(O)c4O[C@H]2[C@@H](NC(=O)COCC(=O)NCCCCCNC(=O)COCC(=O)Nc2cccc4c6c([nH]c24)[C@@H]2Oc4c(OCCc7ccccc7)ccc7c4[C@@]24CCN(CC2CC2)[C@H](C7)[C@]4(O)C6)CC[C@@]3(O)[C@H]1C5.Cl | 7.34 | 204 | 8.21 | 9.77 |  |
| CNC(=O)COCC(=O)NCCCCCNC(=O)COCC(=O)N[C@H]1CC[C@@]2(O)[C@H]3Cc4ccc(O)c5c4[C@@]2(CCN3C)[C@H]1O5 |  |  | 6.9 | 22.4 |  |
| CCN(CC)C(=O)c1ccc(C(=C2CCNCC2)c2c(C)cc(NC(=O)COCC(=O)NCCCCCNC(=O)COCC(=O)NC)cc2C)cc1.Cl | 5.78 | 2880 | 5.92 | 550 |  |
| Nc1cccc2c3c([nH]c12)[C@@H]1Oc2c(OCCc4ccccc4)ccc4c2[C@@]12CCN(CC1CC1)[C@H](C4)[C@]2(O)C3 | 7.46 | 91.2 | 6.94 | 120 |  |
| Cl.Oc1ccc2c3c1O[C@H]1c4[nH]c5ccccc5c4C[C@@]4(O)[C@@H](C2)N(CC2CC2)CC[C@]314 [NALTRINDOLE HYDROCHLORIDE] | 8.26 | 2.63 | 8.46 | 16.6 |  |
| CCN(CC)C(=O)c1ccc(C(=C2CCNCC2)c2c(C)cc(NC(=O)COCC(=O)NCCCCCNC(=O)COCC(=O)N[C@@H]3CC[C@@]4(O)[C@H]5Cc6ccc(O)c7c6[C@@]4(CCN5CC4CC4)[C@H]3O7)cc2C)cc1.Cl | 8.6 | 20 | > 9 | < 1 | 10 |
